Series [1] deals with 20-HETE-Producing Enzyme derived from Human Renal Microsome. In words: Inhibitory action to 20-HETE-producing enzyme derived from human renal microsome. Format: biochemical. Conditions: human renal microsome fraction, tritium-arachidonic acid substrate, NADPH, 37° C., 1.5 hours, pH 7.4; read-out: IC50 (inhibition of 20-HETE production). The method, then:
Inhibitory Action to 20-HETE-Producing Enzyme derived from Human Renal Microsome
With regard to the compounds listed in the above table, their inhibitory actions to 20-HETE production were tested.
This test was carried out in accordance with a method mentioned in J. Pharmacol. Exp. Ther., volume 268, page 474 (1994).
A solution of the test compound adjusted to 1 μM using DMSO was added to a 50 mM of 3-morpholinopropanesulfonic acid buffer (MOPS) (pH 7.4) containing 5 mM of magnesium chloride and 1 mM of sodium ethylenediaminetetraacetate (EDTA), then human renal microsome fraction (Human Cell Culture Center, Anatomic Gift Foundation), [5,6,8,9,11,12,15]tritium-arachidonic acid and NADPH were added thereto as an enzymatic source, a substrate and a coenzyme, respectively and reaction was carried out at 37° C. for 1.5 hours. Formic acid was added to the reaction solution to stop the reaction and then acetonitrile was added thereto (final concentration: 50%). Amount of 20-HETE produced thereby was measured using a high performance liquid chromatography equipped with a radioactive substance detector having an ODS column (Biosil C18; manufactured by Biorad).
Amount of 20-HETE produced when no compound was added was defined as 100% and the concentration of the compound when production of 20-HETE was inhibited to an extent of 50% upon addition of a compound (IC50 value) was calculated.

The term IC50 denotes the concentration that gives 50% inhibition. For orientation: melting point means the temperature of the solid-liquid transition. Take `Cc1cc(N2CCN(C3CCCCC3)CC2)ccc1N/C=N/O.Cl` [Compound 111]: the melting point is 230 to 232 °C (dec.). Besides, the IC50 in series [1] came to 70.8 nM.

On to `O/N=C/Nc1ccc(N2CCN(CCN3CCCC3)CC2)c(Br)c1` [Compound 95], for which the melting point is 163 to 165 °C. The IC50 in series [1] worked out at 75.8 nM.

As for `Cl.OCCN1CCN(c2ccc(N/C=N/O)cc2F)CC1` [Compound 80], the melting point is 180 to 182 °C (dec.). In addition, in series [1], the IC50 came out at 45.4 nM.

As for `O/N=C/Nc1ccc(N2CCCCCC2)c(F)c1` [Compound 22], the melting point fell in the range of 112 to 115 °C. The IC50 in series [1] was found to be 2.1 nM.

Consider `Cl.O/N=C/Nc1ccc(N2CCN(C3CCCCC3)CC2)nc1` [Compound 123], for which the melting point was 224 to 226 °C (dec.). For the same compound, the IC50 in series [1] came out at 90.6 nM.

`O/N=C/Nc1ccc(N2CCCCCC2)c(Br)c1` [Compound 24] returned a melting point of 103.5 to 105 °C. Further, the IC50 in series [1] turned out to be 4.2 nM.

The compound `O/N=C/Nc1ccc(N2CCN(c3ccccn3)CC2)c(Cl)c1` [Compound 131] yielded a melting point of 94 to 96 °C. Besides, the IC50 in series [1] is 3.5 nM.

These data come from patent publication US7214714B2, “20-hydroxyeicosatetraenoic acid production inhibitors” (Taisho Pharmaceutical Co. Ltd., priority 2001, dated 2007).
